Laboratory results taken from patent publication EP0552417B1, “Cyclic peptides and use thereof” (priority 1991, dated 1993).
Non-standard residues stand in square brackets, D forms with d. Residues, ends and D or L forms follow the SMILES beside them. *: point of attachment. NMeW = CN[C@@H](Cc1c[nH]c2ccccc12)C(=O)O; NMeF = CN[C@@H](Cc1ccccc1)C(=O)O; NMeL = CN[C@@H](CC(C)C)C(=O)O; X3 = O=C(Cc1c[nH]c2ccccc12)*; Orn = NCCC[C@H](N)C(=O)O; PhAc = O=C(Cc1ccccc1)*; Sar = CNCC(=O)O

Assays:
ETB = ETB radio receptor assay *2, 125I-endothelin-1, guinea pig kidney crude membrane fraction; format: binding, Guinea pigs; conditions: relative activity, 37 °C, 90 minutes
Protocol: ETB Radio Receptor Assay *2
In the endothelin radio receptor assay, guinea pigs' kidneys were used. Guinea pigs (Std Hartrey, male 250 g, Japan SLC Ltd.) were made to have a cerebral concussion and sacrificed by bleeding from carotid arteries to pick up the kidneys and removed fat therefrom to prepare the kidneys. The obtained kidneys were sliced and homogenized by politron homogenizer in 20 ml of 50 mM Tris-HCl buffer [pH 7.4; 20 mM NaHCO3, 0.1 mM PMSF (Phenylmethylsulfonyl Fluoride), 1 mM EDTA (Ethylenediaminetetraacetic acid)] per one kidney. The homogenized kidney was applied to a centrifugation at 1,000 x g for 15 minutes and the supernatant was further applied to a centrifugation for 20 minutes at 30,000 x g. The resulting precipitate was twice washed with 50 mM Tris-HCl buffer (pH 7.4) containing 0.1 mM PMSF, 1 mM EDTA. The resultant was stored at -80 °C as a crude receptor membrane fraction and was used as the suspension in the following buffer when necessary.
740 Bq of ^125I-endothelin-1 (81.4 TBq/mmol, Du Pont, USA) as a radio ligand, the crude membrane fraction (2.1 µg protein) and samples were added to the following buffer. The reaction was performed at 37 °C, for 90 minutes in 0.2 ml of the buffer [50 mM Tris-HCl buffer (pH 7.4) containing 0.1 mM PMSF, 1 mM EDTA, 0.2% bovine serum albumin].
The reaction was stopped by fast filtration on a glass filter (GF/B, Wattman, USA) by Cell Harvestor (290 PHD, Cambridge-Technology, Great Britain), and the filter was three times washed with 50 mM Tris-HCl buffer (pH 7.4). Radio activity remained on the filter was assayed by a gamma counter.

[1] = biological target: T1, endothelin receptor A (ETA) (Sus scrofa, UniProt Q29010); assay: Assay of affinity for receptor (1): binding activity on ETA receptor, 125I-labeled endothelin-1, porcine heart membrane fraction; parameters: key: relative specific activity; reference cyclic pentapeptide ETA binding = 1.0; conditions: specific activity, taking the binding activity of control cyclo[-D-Glu-Ala-D-aIle-Leu-D-Trp-] on receptor A as 1.0, 25°C, 1 hour
T1 construct: A membrane fraction prepared from the porcine heart; from tissue; host or cells: porcine heart membrane fraction
T1 sequence (Q29010 21-427): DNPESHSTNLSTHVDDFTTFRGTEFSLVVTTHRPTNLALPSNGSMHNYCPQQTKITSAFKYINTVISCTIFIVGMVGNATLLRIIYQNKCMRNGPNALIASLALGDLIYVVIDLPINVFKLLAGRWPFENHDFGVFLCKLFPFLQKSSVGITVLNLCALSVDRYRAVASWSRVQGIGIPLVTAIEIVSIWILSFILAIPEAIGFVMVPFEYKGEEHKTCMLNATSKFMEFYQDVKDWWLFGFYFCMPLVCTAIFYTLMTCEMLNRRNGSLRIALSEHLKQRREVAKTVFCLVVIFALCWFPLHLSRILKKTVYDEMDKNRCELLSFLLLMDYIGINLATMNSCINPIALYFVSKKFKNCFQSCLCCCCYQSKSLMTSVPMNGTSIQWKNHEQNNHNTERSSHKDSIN
Protocol: Assay of Affinity for Receptor (1) ... Binding Activity on ETA Receptor
A membrane fraction prepared from the porcine heart was diluted to 0.15 mg/ml by using a buffer solution for assay, and 100 µl of the resulting suspension of the membrane fraction was poured into each assay tube to use for assay. To this suspension of the membrane fraction was added 2 µl of 5 nM ^125I-labeled endothelin-1 solution. Further, 3 µl of a test peptide solution was added thereto, followed by incubation at a temperature of 25°C for 1 hour. Then, the resulting suspension was diluted with 900 µl of the buffer solution for assay cooled with ice, and thereafter separated into a supernatant and a precipitate by centrifugation at 12,000 X g for 10 minutes. Cell membranes and an endothelin receptor A (ETA) embedded therein were contained in the precipitate, and radioactive iodine-labeled endothelin combined with the receptor was also recovered in the precipitate. Accordingly, the amount of radioactive iodine-labeled endothelin combined with the endothelin receptor A (ETA) was determined by measuring the amount of radioactive iodine contained in the precipitate with a gamma-ray counter. The cyclic pentapeptide described in Japanese Patent Application No. 2-413328/1990, cyclo[-D-Glu-Ala-D-aIle-Leu-D-Trp-], was used as a control compound. The numerical value of ETA shown in Table 1 is the value of specific activity, taking the binding activity of this cyclic pentapeptide on the receptor A as 1.0. The binding activity (IC50) of this cyclic pentapeptide on the ETA receptor is 2x10^-6 M.

In the case of `CC(C)C[C@@H]1NC(=O)[C@@H](CC(C)C)NC(=O)[C@@H]2CCCN2C(=O)[C@H](CC(=O)O)NC(=O)[C@@H](CC(=O)O)NC(=O)[C@@H](Cc2c[nH]c3ccccc23)NC1=O` [Example 30, Cyclo[-D-Asp-Asp-Pro-D-Leu-Leu-D-Trp-]] (cyclo(DP[dL]L[dW][dD])), the “Binding Activity on ET Receptor (R. act.) ETB*2” value (ETB) is reported as 9.1 and the “Binding Activity on ET Receptor (R. act.) ETA” value [1] is reported as 4.4.
With `CC(C)C[C@@H]1NC(=O)[C@@H](CC(C)C)NC(=O)[C@H]2CCCN2C(=O)[C@H](CC(=O)O)NC(=O)[C@@H](CC(=O)O)NC(=O)[C@@H](Cc2c[nH]c3ccccc23)NC1=O` [Example 31, Cyclo[-D-Asp-Asp-D-Pro-D-Leu-Leu-D-Trp-]] (cyclo(D[dP][dL]L[dW][dD])) the “Binding Activity on ET Receptor (R. act.) ETB*2” value (ETB) was 1.0 and the “Binding Activity on ET Receptor (R. act.) ETA” value [1] was 2.6.
In the case of `CC(C)C[C@@H]1NC(=O)[C@@H](CC(C)C)NC(=O)[C@H](CC(=O)O)NC(=O)[C@H](C)NC(=O)[C@@H](CCC(=O)O)NC(=O)[C@@H](Cc2c[nH]c3ccccc23)NC1=O` [Example 41, Cyclo[-D-Glu-Ala-Asp-D-Leu-Leu-D-Trp-]] (cyclo(AD[dL]L[dW][dE])), the “Binding Activity on ET Receptor (R. act.) ETB*2” value (ETB) is reported as 26 and the “Binding Activity on ET Receptor (R. act.) ETA” value [1] is reported as 2.1.
In the case of `CC(C)C[C@@H]1NC(=O)[C@@H](CC(C)C)NC(=O)[C@H](CC(=O)O)NC(=O)CN(C)C(=O)[C@@H](CC(=O)O)NC(=O)[C@@H](Cc2c[nH]c3ccccc23)NC1=O` [Example 46, Cyclo[-D-Asp-Sar-Asp-D-Leu-Leu-D-Trp-]] (cyclo(D[dL]L[dW][dD][Sar])), the “Binding Activity on ET Receptor (R. act.) ETB*2” value (ETB) is reported as 75 and the “Binding Activity on ET Receptor (R. act.) ETA” value [1] is reported as 8.1.
With `CC(C)C[C@@H]1NC(=O)[C@@H](CC(C)C)NC(=O)[C@H](CC(=O)O)NC(=O)[C@H](CC(C)C)N(C)C(=O)[C@@H](CC(=O)O)NC(=O)[C@@H](Cc2c[nH]c3ccccc23)NC1=O` [Example 47, Cyclo[-D-Asp-N-MeLeu-Asp-D-Leu-Leu-D-Trp-]] (cyclo(D[dL]L[dW][dD][NMeL])) the “Binding Activity on ET Receptor (R. act.) ETB*2” value (ETB) was 17 and the “Binding Activity on ET Receptor (R. act.) ETA” value [1] was 6.8.
For `CC(C)C[C@@H]1NC(=O)[C@@H](CC(C)C)NC(=O)[C@H](CC(=O)O)NC(=O)[C@H](Cc2ccccc2)N(C)C(=O)[C@@H](CC(=O)O)NC(=O)[C@@H](Cc2c[nH]c3ccccc23)NC1=O` [Example 48, Cyclo[-D-Asp-N-MePhe-Asp-D-Leu-Leu-D-Trp-]] (cyclo(D[dL]L[dW][dD][NMeF])), the “Binding Activity on ET Receptor (R. act.) ETB*2” value (ETB) was 13 and the “Binding Activity on ET Receptor (R. act.) ETA” value [1] was 2.7.
In the case of `CC(C)C[C@@H]1NC(=O)[C@@H](CC(C)C)NC(=O)[C@H](CC(=O)O)NC(=O)[C@H](Cc2c[nH]c3ccccc23)N(C)C(=O)[C@@H](CC(=O)O)NC(=O)[C@@H](Cc2c[nH]c3ccccc23)NC1=O` [Example 67, Cyclo[-D-Asp-N-MeTrp-Asp-D-Leu-Leu-D-Trp-]] (cyclo(D[dL]L[dW][dD][NMeW])), the “Binding Activity on ET Receptor (R. act.) ETB*2” value (ETB) is reported as 30 and the “Binding Activity on ET Receptor (R. act.) ETA” value [1] is reported as 9.1.
For `CC(C)C[C@@H]1NC(=O)[C@@H](CC(C)C)NC(=O)[C@H](CC(=O)O)NC(=O)[C@H](CCCNC(=O)Cc2ccccc2)NC(=O)[C@@H](CC(=O)O)NC(=O)[C@@H](Cc2c[nH]c3ccccc23)NC1=O` [Example 80, cyclo[-D-Asp-Orn(COCH2Ph)-Asp-D-Leu-Leu-D-Trp-]] (cyclo(D[dL]L[dW][dD][Orn](PhAc))), the “Binding Activity on ET Receptor (R. act.) ETB*2” value (ETB) was 380 and the “Binding Activity on ET Receptor (R. act.) ETA” value [1] was 260.
In the case of `CC(C)C[C@@H]1NC(=O)[C@@H](CC(C)C)NC(=O)[C@H](CC(=O)O)NC(=O)[C@H](CCCNC(=O)Cc2c[nH]c3ccccc23)NC(=O)[C@@H](CC(=O)O)NC(=O)[C@@H](Cc2c[nH]c3ccccc23)NC1=O` [Example 82, cyclo[-D-Asp-Orn(COCH2-Ind)-Asp-D-Leu-Leu-D-Trp-]] (cyclo(D[dL]L[dW][dD][Orn](X3))), the “Binding Activity on ET Receptor (R. act.) ETB*2” value (ETB) is reported as 500 and the “Binding Activity on ET Receptor (R. act.) ETA” value [1] is reported as 240.
